The results in this text go back to US20260297109A1, “COMPOUNDS AS SUMO ACTIVATING ENZYME INHIBITORS” (WIGEN BIOMEDICINE TECHNOLOGY (SHANGHAI) CO., LTD., priority 2022, published 2026).

This assay concerns the target T1, SAE (Homo sapiens, UniProt Q9UBT2).
T1 construct: endogenous in cells; host or cells: HCT116
T1 sequence (Q9UBT2 1-640): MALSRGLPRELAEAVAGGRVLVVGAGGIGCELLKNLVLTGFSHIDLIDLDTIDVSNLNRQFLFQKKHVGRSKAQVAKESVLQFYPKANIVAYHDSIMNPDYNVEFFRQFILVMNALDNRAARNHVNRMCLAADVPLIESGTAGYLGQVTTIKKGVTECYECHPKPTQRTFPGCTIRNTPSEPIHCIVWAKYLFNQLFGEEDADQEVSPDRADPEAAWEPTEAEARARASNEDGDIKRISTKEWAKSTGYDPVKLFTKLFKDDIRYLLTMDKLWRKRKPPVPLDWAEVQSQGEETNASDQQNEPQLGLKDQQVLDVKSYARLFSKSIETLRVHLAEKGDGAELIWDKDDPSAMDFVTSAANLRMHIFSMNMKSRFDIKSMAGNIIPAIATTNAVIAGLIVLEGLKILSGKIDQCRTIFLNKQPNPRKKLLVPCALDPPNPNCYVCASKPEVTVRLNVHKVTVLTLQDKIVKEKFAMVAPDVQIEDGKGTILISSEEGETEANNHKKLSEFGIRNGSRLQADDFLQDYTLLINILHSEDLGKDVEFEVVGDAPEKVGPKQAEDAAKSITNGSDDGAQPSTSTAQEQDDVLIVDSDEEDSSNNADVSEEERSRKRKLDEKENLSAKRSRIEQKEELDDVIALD
T1 sequence (Q9UBE0 1-346): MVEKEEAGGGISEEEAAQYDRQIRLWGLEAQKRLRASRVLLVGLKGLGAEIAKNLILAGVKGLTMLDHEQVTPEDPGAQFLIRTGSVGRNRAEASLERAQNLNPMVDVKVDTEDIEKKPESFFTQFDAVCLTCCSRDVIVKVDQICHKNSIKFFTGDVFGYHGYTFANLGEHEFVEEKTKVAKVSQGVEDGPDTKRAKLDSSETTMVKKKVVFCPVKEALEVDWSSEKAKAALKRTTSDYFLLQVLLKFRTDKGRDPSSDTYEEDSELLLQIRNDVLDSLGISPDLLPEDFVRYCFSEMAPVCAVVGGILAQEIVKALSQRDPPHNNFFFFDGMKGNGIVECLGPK
In words: SUMO IF: in vitro inhibitory activity assay against SAE in HCT116 cells (SUMO-2/3 immunofluorescence). It is filed as cell-based. The conditions noted are these: 6 h at 37° C. The procedure:
Biological Example 1. In Vitro Inhibitory Activity Assay of Compounds of the Present Disclosure Against SAE
HCT116 cells were seeded into a 96-well black transparent bottom plate at about 20000/well with 90 μL per well. The cells were incubated at 37° C. overnight for 24 h. The test compounds were 10-fold diluted to give a final concentration, and 10 μL of the diluted compounds was added to each well of the cell culture plate. The mixture was incubated at 37° C. for 6 h. The cells were then washed gently, the culture medium was discarded, and the cells were washed once with 200 μL of 0.1% PBST. 50 μL of 4% PFA was added to each well, and the cells were immobilized at room temperature for 20 min, and then washed with PBS 2-3 times. 50 μL of 0.2% Triton X-100 was added to each well, and the cells were left to stand at room temperature for 15 min and washed with 0.1% PBST 3 times. 100 μL of 3% BSA (0.6 g BSA+20 mL PBS) was added to each well, and the mixture was blocked at 37° C. for 30 min. After the blocking was completed, the liquid was removed and a primary antibody (SUMO-2/3 (18H8) Rabbit mAb, 1:400 dilution) was prepared with 1% BSA. 30 μL of the diluted primary antibody was added to each well, and the mixture was incubated at 4° C. overnight. The cells were washed 3 times with 200 μL of 0.1% PBST. A FITC secondary antibody (Fluorescein (FITC)-conjugated Affinipure Goat Anti-Rabbit IgG (H+L), 1:300 dilution) was further prepared with 1% BSA, and 40 μL of the diluted secondary antibody was added to each well. The mixture was incubated at room temperature in the dark for 2 h, and then the cells were washed 4 times with 0.1% PBST. The fluorescence signal of the sample was detected and compared to the DMSO group, and the inhibition rate and IC50 were calculated.

Bounds are passed on as bounds.

For orientation: IC50 means the point on the concentration scale where inhibition reaches its midpoint. Read a high IC50 as a need for much substance. With `NS(=O)(=O)OC[C@H]1[C@H](F)[C@@H](Nc2ncncc2C(=O)c2cc3c(s2)CCCC32NCCc3ccccc32)C[C@@H]1O` (some centres unmarked) [Compound 85], the IC50 (class symbols) fell in the range of 50 to 200 nM. Turning to `NS(=O)(=O)OC[C@H]1[C@H](F)[C@@H](Nc2ncncc2C(=O)c2cc3c(s2)CCC[C@@]32NCCc3ccccc32)C[C@@H]1O` [Compound 86], the IC50 (class symbols) is > 200 nM. Same read-out and setting: the same measure for `NS(=O)(=O)OC[C@H]1[C@H](F)[C@@H](Nc2ncncc2C(=O)c2cc3c(s2)CCC[C@]32NCCc3ccccc32)C[C@@H]1O` [Compound 87]: ≤ 50 nM; for `NS(=O)(=O)OC[C@H]1[C@H](F)[C@@H](Nc2ncncc2C(=O)c2cc3c(s2)CCCC32NCCc3ccc(Cl)cc32)C[C@@H]1O` (some centres unmarked) [Compound 88]: ≤ 50 nM.

With `NS(=O)(=O)OC[C@H]1[C@H](F)[C@@H](Nc2ncncc2C(=O)c2cc3c(s2)CCC[C@@]32NCCc3ccc(Cl)cc32)C[C@@H]1O` [Compound 89], where the note is “numeric values”, the IC50 is > 1000 nM. For the compound `NS(=O)(=O)OC[C@H]1[C@H](F)[C@@H](Nc2ncncc2C(=O)c2cc3c(s2)CCCC32NCCc3ccc(F)cc32)C[C@@H]1O` (some centres unmarked) [Compound 91], where the note is “class symbols”, the IC50 lay within 50 to 200 nM. With `NS(=O)(=O)OC[C@H]1[C@H](F)[C@@H](Nc2ncncc2C(=O)c2cc3c(s2)CCC[C@@]32NCCc3ccc(F)cc32)C[C@@H]1O` [Compound 92], for the setting “numeric values”, the IC50 is > 1000 nM. As for `N#Cc1ccc2c(c1)C1(CCCc3sc(C(=O)c4cncnc4N[C@H]4C[C@H](O)[C@@H](COS(N)(=O)=O)[C@@H]4F)cc31)NCC2` (some centres unmarked) [Compound 94], the IC50 (class symbols) fell in the range of 50 to 200 nM. As for `N#Cc1ccc2c(c1)[C@]1(CCCc3sc(C(=O)c4cncnc4N[C@H]4C[C@H](O)[C@@H](COS(N)(=O)=O)[C@@H]4F)cc31)NCC2` [Compound 95], where the note is “class symbols”, the IC50 is > 200 nM. The same measure, in the same setting: for `N#Cc1ccc2c(c1)[C@@]1(CCCc3sc(C(=O)c4cncnc4N[C@H]4C[C@H](O)[C@@H](COS(N)(=O)=O)[C@@H]4F)cc31)NCC2` [Compound 96] the value was ≤ 50 nM; for `NS(=O)(=O)OC[C@H]1[C@H](F)[C@@H](Nc2ncncc2C(=O)c2cc3c(s2)COCC32NCCc3ccccc32)C[C@@H]1O` (some centres unmarked) [Compound 97], > 200 nM.

Turning to `NS(=O)(=O)OC[C@H]1[C@H](F)[C@@H](Nc2ncncc2C(=O)c2cc3c(s2)COC[C@@]32NCCc3ccccc32)C[C@@H]1O` [Compound 98], the IC50 (class symbols) was > 200 nM. `NS(=O)(=O)OC[C@H]1[C@H](F)[C@@H](Nc2ncncc2C(=O)c2cc3c(s2)COC[C@]32NCCc3ccccc32)C[C@@H]1O` [Compound 99] registered an IC50 (class symbols) of 50 to 200 nM.

`NS(=O)(=O)OC[C@H]1[C@H](F)[C@@H](Nc2ncncc2C(=O)c2cc3c(s2)COCC32NCCc3ccc(F)cc32)C[C@@H]1O` (some centres unmarked) [Compound 100]: where the note is “class symbols”, the IC50 was in the range of 50 to 200 nM. On the same count and under the same terms, for `NS(=O)(=O)OC[C@H]1[C@H](F)[C@@H](Nc2ncncc2C(=O)c2cc3c(s2)COC[C@@]32NCCc3ccc(F)cc32)C[C@@H]1O` [Compound 101] the value was > 200 nM; for `NS(=O)(=O)OC[C@H]1[C@H](F)[C@@H](Nc2ncncc2C(=O)c2cc3c(s2)COC[C@]32NCCc3ccc(F)cc32)C[C@@H]1O` [Compound 102], 50 to 200 nM. For the compound `NS(=O)(=O)OC[C@H]1[C@H](F)[C@@H](Nc2ncncc2C(=O)c2cc3c(s2)COCC32NCCc3ccc(Cl)cc32)C[C@@H]1O` (some centres unmarked) [Compound 103], the IC50 (class symbols) was in the range of 50 to 200 nM. Turning to `NS(=O)(=O)OC[C@H]1[C@H](F)[C@@H](Nc2ncncc2C(=O)c2cc3c(s2)COC[C@@]32NCCc3ccc(Cl)cc32)C[C@@H]1O` [Compound 104], under “numeric values”, the IC50 is > 1000 nM. On the same count and under the same terms, the same measure for `NS(=O)(=O)OC[C@H]1[C@H](F)[C@@H](Nc2ncncc2C(=O)c2cc3c(s2)COC[C@]32NCCc3ccc(Cl)cc32)C[C@@H]1O` [Compound 105]: 79.3 nM. The compound `Cc1ccc2c(c1)C1(CCCc3sc(C(=O)c4cncnc4N[C@H]4C[C@H](O)[C@@H](COS(N)(=O)=O)[C@@H]4F)cc31)NCC2` (some centres unmarked) [Compound 106] had an IC50 (class symbols) of 50 to 200 nM.

For the setting “class symbols”, `NS(=O)(=O)OC[C@H]1[C@H](F)[C@@H](Nc2ncncc2C(=O)c2cc3c(s2)CCCC32NCCc3ccc(C4CC4)cc32)C[C@@H]1O` (some centres unmarked) [Compound 107] registered an IC50 of 50 to 200 nM.

With `COc1ccc2c(c1)C1(CCCc3sc(C(=O)c4cncnc4N[C@H]4C[C@H](O)[C@@H](COS(N)(=O)=O)[C@@H]4F)cc31)NCC2` (some centres unmarked) [Compound 108], under “class symbols”, the IC50 is > 200 nM. The same measure, in the same setting: for `NS(=O)(=O)OC[C@H]1[C@H](F)[C@@H](Nc2ncncc2C(=O)c2cc3c(s2)CCCC32NCCc3ccc(C(F)(F)F)cc32)C[C@@H]1O` (some centres unmarked) [Compound 109] the value was 50 to 200 nM; for `NS(=O)(=O)OC[C@H]1[C@H](F)[C@@H](Nc2ncncc2C(=O)c2cc3c(s2)CCCC32NCCc3cc(F)c(F)cc32)C[C@@H]1O` (some centres unmarked) [Compound 110], 50 to 200 nM. Still for that read-out and setting: for `NS(=O)(=O)OC[C@H]1[C@H](F)[C@@H](Nc2ncncc2C(=O)c2cc3c(s2)CCCC32NCCc3cc(F)c(Cl)cc32)C[C@@H]1O` (some centres unmarked) [Compound 111] the value was ≤ 50 nM; for `NS(=O)(=O)OC[C@H]1[C@H](F)[C@@H](Nc2ncncc2C(=O)c2cc3c(s2)CCCC32NCCc3cc(Cl)c(Cl)cc32)C[C@@H]1O` (some centres unmarked) [Compound 112], 50 to 200 nM; for `Cc1cc2c(cc1Cl)C1(CCCc3sc(C(=O)c4cncnc4N[C@H]4C[C@H](O)[C@@H](COS(N)(=O)=O)[C@@H]4F)cc31)NCC2` (some centres unmarked) [Compound 113], 50 to 200 nM. Regarding `N#Cc1cc2c(cc1Cl)C1(CCCc3sc(C(=O)c4cncnc4N[C@H]4C[C@H](O)[C@@H](COS(N)(=O)=O)[C@@H]4F)cc31)NCC2` (some centres unmarked) [Compound 114], the IC50 (class symbols) was in the range of 50 to 200 nM. Still for that read-out and setting: the same measure for `COc1cc2c(cc1Cl)C1(CCCc3sc(C(=O)c4cncnc4N[C@H]4C[C@H](O)[C@@H](COS(N)(=O)=O)[C@@H]4F)cc31)NCC2` (some centres unmarked) [Compound 115]: 50 to 200 nM; for `NS(=O)(=O)OC[C@H]1[C@H](F)[C@@H](Nc2ncncc2C(=O)c2cc3c(s2)CCCC32NCCc3cc(F)c(Cl)c(F)c32)C[C@@H]1O` (some centres unmarked) [Compound 116]: 50 to 200 nM; for `NS(=O)(=O)OC[C@H]1[C@H](F)[C@@H](Nc2ncncc2C(=O)c2cc3c(s2)CCCC32NCCc3cc(Cl)c(F)cc32)C[C@@H]1O` (some centres unmarked) [Compound 117]: 50 to 200 nM. Still for that read-out and setting: the same measure for `NS(=O)(=O)OC[C@H]1[C@H](F)[C@@H](Nc2ncncc2C(=O)c2cc3c(s2)CCCC32NCCc3ccncc32)C[C@@H]1O` (some centres unmarked) [Compound 118]: 50 to 200 nM; for `NS(=O)(=O)OC[C@H]1[C@H](F)[C@@H](Nc2ncncc2C(=O)c2cc3c(s2)CCCC32NCCc3cc(Cl)ncc32)C[C@@H]1O` (some centres unmarked) [Compound 119]: 50 to 200 nM; for `NS(=O)(=O)OC[C@H]1[C@H](F)[C@@H](Nc2ncncc2C(=O)c2cc3c(s2)C=CCC32NCCc3ccc(Cl)cc32)C[C@@H]1O` (some centres unmarked) [Compound 120]: ≤ 50 nM. Still for that read-out and setting: for `NS(=O)(=O)OC[C@H]1[C@H](F)[C@@H](Nc2ncncc2C(=O)c2cc3c(s2)CC=CC32NCCc3ccc(Cl)cc32)C[C@@H]1O` (some centres unmarked) [Compound 121] the value was ≤ 50 nM; for `NS(=O)(=O)OC[C@H]1[C@H](F)[C@@H](Nc2ncncc2C(=O)c2cc3c(s2)OCCC32NCCc3ccc(Cl)cc32)C[C@@H]1O` (some centres unmarked) [Compound 122], 50 to 200 nM; for `NS(=O)(=O)OC[C@H]1[C@H](F)[C@@H](Nc2ncncc2C(=O)c2cc3c(s2)CCCC32NCC3(CC3)c3ccc(Cl)cc32)C[C@@H]1O` (some centres unmarked) [Compound 123], 50 to 200 nM. `NS(=O)(=O)OC[C@H]1[C@H](F)[C@@H](Nc2ncncc2C(=O)c2cc3c(s2)CCCC32NC3(CC3)Cc3ccc(Cl)cc32)C[C@@H]1O` (some centres unmarked) [Compound 124]: the IC50 (class symbols) was 50 to 200 nM.
